US11370794B2, “Toll-like receptor antagonist compounds and methods of use” (Dynavax Technologies Corporation, priority 2016, dated 2022)
pIC50: −log10 of the molar value. Where two headings read alike, the source gives them in different places.

Key:
human TLR8 = molecular target: T1, human TLR8 (Homo sapiens, UniProt Q9NR97); test: Inhibition of human TLR8 in human monocytes (TNF-alpha / IL-1 beta ELISA); assay type: cell-based; conditions: human monocytes, agonist ORN8L 100 μg/mL, 24 hours
T1 construct: endogenous in cells; host or cells: primary human monocytes (CD14 microbeads) from buffy coats of healthy donors
T1 sequence (Q9NR97 27-1041): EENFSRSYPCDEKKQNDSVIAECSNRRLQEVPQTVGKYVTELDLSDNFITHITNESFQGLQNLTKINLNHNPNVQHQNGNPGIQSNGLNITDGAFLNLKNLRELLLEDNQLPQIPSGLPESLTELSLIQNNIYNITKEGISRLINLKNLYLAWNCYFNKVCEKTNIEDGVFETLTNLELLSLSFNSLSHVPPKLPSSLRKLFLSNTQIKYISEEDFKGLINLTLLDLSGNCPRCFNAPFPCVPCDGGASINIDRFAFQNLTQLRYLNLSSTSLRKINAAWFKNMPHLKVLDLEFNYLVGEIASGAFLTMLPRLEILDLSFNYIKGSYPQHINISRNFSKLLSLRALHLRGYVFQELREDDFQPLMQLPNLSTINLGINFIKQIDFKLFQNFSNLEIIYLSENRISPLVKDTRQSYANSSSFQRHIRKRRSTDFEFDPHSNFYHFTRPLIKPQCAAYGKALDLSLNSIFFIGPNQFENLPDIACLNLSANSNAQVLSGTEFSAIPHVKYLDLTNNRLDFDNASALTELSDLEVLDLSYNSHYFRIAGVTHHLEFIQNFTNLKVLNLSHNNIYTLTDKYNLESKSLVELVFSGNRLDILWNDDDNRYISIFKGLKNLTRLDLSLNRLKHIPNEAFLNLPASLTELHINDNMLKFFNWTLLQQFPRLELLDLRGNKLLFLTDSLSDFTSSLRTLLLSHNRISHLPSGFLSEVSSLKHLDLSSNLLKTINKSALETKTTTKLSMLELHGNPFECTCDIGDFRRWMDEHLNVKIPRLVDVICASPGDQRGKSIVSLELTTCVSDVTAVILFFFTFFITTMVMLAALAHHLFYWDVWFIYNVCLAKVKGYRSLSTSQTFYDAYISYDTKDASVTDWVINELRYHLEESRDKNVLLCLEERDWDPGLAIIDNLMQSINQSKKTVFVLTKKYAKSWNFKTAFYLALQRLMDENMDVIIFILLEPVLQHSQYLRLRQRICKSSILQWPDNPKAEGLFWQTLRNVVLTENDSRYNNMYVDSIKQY
From the text: Example B2—Inhibition of Human TLR8 in Human Monocytes
When placed in cell culture, engagement of TLR8 with an agonist leads to expression and release of cytokines into the media.
Buffy coats from anonymized, healthy human donors. CD14 microbeads (Milteny Cat. No. 130-050-201). TLR8 agonist, (5′-M2UGCUGCUUGUG-/glycerol/-GUGUUCGUCGUM2-5′ with M2=C6-linker, ORN8L, RNA oligonucleotide (Chem Genes Corp.). Human TNF-alpha ELISA kit (Mabtech Cat. No. 3510-1H-20). Human interleukin (IL)-1 beta ELISA kit (Mabtech Cat. No. 3415-1H-20).
Following isolation of monocytes from buffy coats, human monocytes were plated into 96 well plates at approximately 200,000 cells per well. Test compounds were serially diluted and added to the plates. Immediately after adding test compounds, the TLR8 agonist (ORN8L, RNA oligonucleotide) was added to a final concentration of 100 μg/mL. Cells were incubated for 24 hours at 37° C. A portion of the media supernatant was analyzed for the presence of TNF-alpha and/or IL-1 beta using ELISA kits. The amount of TNF-alpha or IL-1 beta produced is a reflection of the amount of TLR8-dependent receptor activity. The IC50 values (the concentration at which 50% of the TLR8-dependent receptor activity is reduced) were calculated based upon the TLR8-dependent receptor activity over a range of different test compound concentrations.

human TLR9 = molecular target: T2, human TLR9 (Homo sapiens, UniProt Q9NR96); test: Inhibition of human TLR9 in human B cells (IL-6 ELISA); assay type: cell-based; conditions: for pIC50: human B cells, agonist 1018 ISS 1 μM; for inhibits TLR9-dependent responses (in words): summary statement of the description
T2 construct: endogenous in cells; host or cells: primary human B cells (CD19 microbeads) from buffy coats of healthy donors
T2 sequence (Q9NR96 26-1032): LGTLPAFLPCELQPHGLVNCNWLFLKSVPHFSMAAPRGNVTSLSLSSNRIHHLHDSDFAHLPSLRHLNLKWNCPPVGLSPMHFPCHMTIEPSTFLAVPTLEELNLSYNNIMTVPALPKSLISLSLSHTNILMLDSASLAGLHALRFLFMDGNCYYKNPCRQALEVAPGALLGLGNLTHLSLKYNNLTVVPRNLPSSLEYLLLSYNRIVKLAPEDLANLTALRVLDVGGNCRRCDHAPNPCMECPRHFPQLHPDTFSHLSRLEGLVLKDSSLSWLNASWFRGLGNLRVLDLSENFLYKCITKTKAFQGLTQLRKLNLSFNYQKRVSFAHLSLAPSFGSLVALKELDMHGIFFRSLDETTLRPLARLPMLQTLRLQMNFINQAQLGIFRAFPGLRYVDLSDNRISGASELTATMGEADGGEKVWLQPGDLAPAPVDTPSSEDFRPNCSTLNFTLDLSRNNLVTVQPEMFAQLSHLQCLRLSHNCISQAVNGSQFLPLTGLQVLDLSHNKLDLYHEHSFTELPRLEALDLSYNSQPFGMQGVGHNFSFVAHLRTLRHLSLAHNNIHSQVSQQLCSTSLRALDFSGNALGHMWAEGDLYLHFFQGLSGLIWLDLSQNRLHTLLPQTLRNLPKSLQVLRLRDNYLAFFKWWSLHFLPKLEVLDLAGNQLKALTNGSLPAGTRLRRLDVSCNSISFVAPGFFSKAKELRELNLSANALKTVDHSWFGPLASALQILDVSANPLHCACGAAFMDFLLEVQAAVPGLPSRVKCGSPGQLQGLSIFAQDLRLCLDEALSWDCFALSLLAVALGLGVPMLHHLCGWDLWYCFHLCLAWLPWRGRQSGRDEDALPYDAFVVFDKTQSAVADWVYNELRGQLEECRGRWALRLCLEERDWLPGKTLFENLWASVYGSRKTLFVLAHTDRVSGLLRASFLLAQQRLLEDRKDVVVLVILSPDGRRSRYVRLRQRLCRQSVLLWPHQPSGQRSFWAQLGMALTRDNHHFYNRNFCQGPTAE
Experimental: Example B3—Inhibition of Human TLR9 in Human B Cells
When placed in cell culture, engagement of TLR9 with an agonist leads to expression and release of cytokines into the media.
Buffy coats from anonymized, healthy human donors. CD19 microbeads (Miltenyi Cat. No. 130-050-301). TLR9 agonist, 1018 ISS, CpG-containing DNA oligonucleotide. Human interleukin (IL)-6 ELISA kit (Mabtech Cat. No. 3460-1H-20).
Following isolation of […] from buffy coats, human B cells were plated into 96 well plates at approximately 300,000 cells per well. Test compounds were serially diluted and added to the plates. Test compounds were typically assayed using a concentration range from about 0.01 μM to about 10 μM. Certain test compounds were further assayed in an expanded dilution series using a compound concentration range from about 0.001 μM to about 30 μM. Immediately after adding test compounds, the TLR9 agonist (1018 ISS, CpG-containing DNA oligonucleotide) was added to a final concentration of 1 μM. Cells were incubated for 48 hours at 37° C. A portion of the media supernatant was analyzed for the presence of IL-6 using ELISA kits. The amount of IL-6 produced is a reflection of the amount of TLR9-dependent receptor activity. The IC50 values (the concentration at which 50% of the TLR9-dependent receptor activity is reduced) were calculated based upon the TLR9-dependent receptor activity over a range of different test compound concentrations.

[1] = TNF-alpha readout, read-out: Human TLR8 IC50 TNF-a
[2] = IL-6 readout, 48 hours, range about 0.01 to 10 μM, read-out: Human TLR9 IC50
[3] = IL-1 beta readout, read-out: Human TLR8 IC50 IL-1b
[4] = IL-6, 48 hours, expanded dilution series about 0.001 to 30 μM, read-out: Human TLR9 IC50, expanded dilution series

| Compound | pIC50 (human TLR8; [1]) | pIC50 (human TLR9; [2]) | pIC50 (human TLR8; [3]) | inhibits TLR9-dependent responses (in words) (human TLR9) | pIC50 (human TLR9; [4]) |
| --- | --- | --- | --- | --- | --- |
| CNC(=O)C1CCN(c2nnc(C)c3c(C)n(-c4ccc(C)cc4)nc23)CC1 [2-2] | ≤ 4.70 | 5.42 |  |  |  |
| Cc1ccc(-n2nc3c(N4CCC(C(=O)N5CCOCC5)CC4)nnc(C)c3c2C)cc1 [2-3] | < 5.00 | < 5.00 | < 5.00 |  |  |
| Cc1ccc(-n2nc3c(N4CCC(C(=O)NCCCN5CCc6ccccc65)CC4)nnc(C)c3c2C)cc1 [2-4] | < 5.00 | < 5.00 | < 5.00 |  |  |
| Cc1ccc(-n2nc3c(N4CCC(C(=O)NCCCN5CCCc6ccccc65)CC4)nnc(C)c3c2C)cc1 [2-5] | < 5.00 | < 5.00 | < 5.00 |  |  |
| Cc1ccc(-n2nc3c(N4CCC(C(=O)NCCCc5ccccc5)CC4)nnc(C)c3c2C)cc1 [2-6] | < 5.00 | < 5.00 | < 5.00 |  |  |
| Cc1ccc(-n2nc3c(N4CCC(C(=O)NCCCCCc5ccccc5)CC4)nnc(C)c3c2C)cc1 [2-12] | < 5.00 | 6.37 | < 5.00 |  |  |
| CCN(CC)CCCNC(=O)C1CCN(c2nnc(C)c3c(C)n(-c4ccccc4)nc23)CC1 [7x, N-(3-(diethylamino)propyl)-1-(3,4-dimethyl-2-phenyl-2H-pyrazolo[3,4-d]pyridazin-7-yl)piperidine-4-carboxamide] | < 5.00 | 6.43 | < 5.00 |  |  |
| CCN(CC)CCCNC(=O)C1CCN(c2nnc(C)c3c(C)n(-c4ccc(OC)cc4)nc23)CC1 [9x, N-(3-(diethylamino)propyl)-1-(2-(4-methoxyphenyl)-3,4-dimethyl-2H-pyrazolo[3,4-d]pyridazin-7-yl)piperidine-4-carboxamide] | < 5.00 | 7.40 | < 5.00 | inhibit |  |
| Cc1ccc(-n2nc3c(N4CCC(C(=O)NCCCN5CCCC5)CC4)nnc(C)c3c2C)cc1 [15x, 1-(3,4-dimethyl-2-(p-tolyl)-2H-pyrazolo[3,4-d]pyridazin-7-yl)-N-(3-(pyrrolidin-1-yl)propyl)piperidine-4-carboxamide] | 5.34 | 6.39 |  |  |  |
| Cc1ccc(-n2nc3c(N4CCC(C(=O)NCCN5CCOCC5)CC4)nnc(C)c3c2C)cc1 [17x, 1-(3,4-dimethyl-2-(p-tolyl)-2H-pyrazolo[3,4-d]pyridazin-7-yl)-N-(2-morpholinoethyl)piperidine-4-carboxamide] | ≤ 4.70 | 7.77 |  | inhibit |  |
| CCN(CC)CCNC(=O)C1CCN(c2nnc(C)c3c(C)n(-c4ccc(C)cc4)nc23)CC1 [20x, N-(2-(diethylamino)ethyl)-1-(3,4-dimethyl-2-(p-tolyl)-2H-pyrazolo[3,4-d]pyridazin-7-yl)piperidine-4-carboxamide] | 5.31 | 8.52 | 5.30 |  |  |
| Cc1nnc(N2CCC(C(=O)NCCN3CCCCC3C)CC2)c2nn(-c3ccccc3)c(C)c12 (stereo not drawn) [24x, 1-(3,4-dimethyl-2-phenyl-2H-pyrazolo[3,4-d]pyridazin-7-yl)-N-(2-(2-methylpiperidin-1-yl)ethyl)piperidine-4-carboxamide] | < 5.00 | 7.49 | < 5.00 | inhibit |  |
| Cc1ccc(-n2nc3c(N4CCC(C(=O)N5CC[C@H](CN(C)C)C5)CC4)nnc(C)c3c2C)cc1 [Compound 45a, (R)-(1-(3,4-dimethyl-2-(p-tolyl)-2H-pyrazolo[3,4-d]pyridazin-7-yl)piperidin-4-yl)(3-((dimethylamino)methyl)pyrrolidin-1-yl)methanone] |  |  |  | inhibit |  |
| Cc1ccc(-n2nc3c(N4CCC(C(=O)N5CC[C@@H](CN(C)C)C5)CC4)nnc(C)c3c2C)cc1 [Compound 45b, (S)-(1-(3,4-dimethyl-2-(p-tolyl)-2H-pyrazolo[3,4-d]pyridazin-7-yl)piperidin-4-yl)(3-((dimethylamino)methyl)pyrrolidin-1-yl)methanone] |  |  |  | inhibit |  |
| Cc1ccc(-n2cc3cncc(N4CCC(C(=O)NCCCN(C)C)CC4)c3n2)cc1 [Compound No. 55, N-(3-(dimethylamino)propyl)-1-(2-(p-tolyl)-2H-pyrazolo[4,3-c]pyridin-7-yl)piperidine-4-carboxamide] |  | 8.15 |  |  | 8.05 |
| Cc1ccc(-n2nc3c(N4CCC(C)(C(=O)NCCCN(C)C)CC4)nnc(C)c3c2C)cc1 [compound 20, 1-(3,4-dimethyl-2-(p-tolyl)-2H-pyrazolo[3,4-d]pyridazin-7-yl)-N-(3-(dimethylamino)propyl)-4-methylpiperidine-4-carboxamide] |  | 7.74 |  |  | 7.62 |
